Test results from patent publication US5679828A (priority 1995, dated 1997).
pEC50: −log10 of the molar value.

What was measured:
[1] = system: HIV-induced membrane fusion; settings: cited from earlier work
[2] = system: HIV-induced membrane fusion; experiment: Inhibition of HIV-induced membrane fusion / syncytia formation reported in the literature; type: cell-based; settings: versus compounds 2-5 or 8-10; CEM4 here, H9 in the literature
HIV-1 RT = settings: Table 1 footnote h: data from reference 8; cited from earlier work
HIV-1 = settings: Table 1 footnote h: data from reference 8; cited from earlier work

C=C(C)[C@@H]1CC[C@]2(C(=O)NCCCCCCCC(=O)N[C@@H](CC(C)C)[C@@H](O)CC(=O)O)CC[C@]3(C)[C@H](CC[C@@H]4[C@@]5(C)CC[C@H](O)C(C)(C)[C@@H]5CC[C@]43C)[C@@H]12 [Compound 12]
Fusion Assay IC100 ([1]; Table 1 footnote h: data from reference 8): 3 µg/mL
inhibit syncytia formation ([1]; reported in the literature, H9 cell line): 3 µg/mL
potency in inhibiting syncytia formation relative to compounds 2-5 or 8-10 [2]: approximately ten
HIV-RT Assay IC50 (HIV-1 RT): No Inhibition
pEC50 (HIV-1): 7.52
T.I. (HIV-1): > 90
